This is an account of results in ChEMBL document CHEMBL5725638, “3-substituted 5-amino-6H-thiazolo[4,5-d]pyrimidine-2,7-dione compounds for the treatment and prophylaxis of virus infection” (2018).

This assay concerns the target T1, Toll-like receptor 7 (Homo sapiens, UniProt Q9NYK1).
T1 sequence (Q9NYK1 whole entry): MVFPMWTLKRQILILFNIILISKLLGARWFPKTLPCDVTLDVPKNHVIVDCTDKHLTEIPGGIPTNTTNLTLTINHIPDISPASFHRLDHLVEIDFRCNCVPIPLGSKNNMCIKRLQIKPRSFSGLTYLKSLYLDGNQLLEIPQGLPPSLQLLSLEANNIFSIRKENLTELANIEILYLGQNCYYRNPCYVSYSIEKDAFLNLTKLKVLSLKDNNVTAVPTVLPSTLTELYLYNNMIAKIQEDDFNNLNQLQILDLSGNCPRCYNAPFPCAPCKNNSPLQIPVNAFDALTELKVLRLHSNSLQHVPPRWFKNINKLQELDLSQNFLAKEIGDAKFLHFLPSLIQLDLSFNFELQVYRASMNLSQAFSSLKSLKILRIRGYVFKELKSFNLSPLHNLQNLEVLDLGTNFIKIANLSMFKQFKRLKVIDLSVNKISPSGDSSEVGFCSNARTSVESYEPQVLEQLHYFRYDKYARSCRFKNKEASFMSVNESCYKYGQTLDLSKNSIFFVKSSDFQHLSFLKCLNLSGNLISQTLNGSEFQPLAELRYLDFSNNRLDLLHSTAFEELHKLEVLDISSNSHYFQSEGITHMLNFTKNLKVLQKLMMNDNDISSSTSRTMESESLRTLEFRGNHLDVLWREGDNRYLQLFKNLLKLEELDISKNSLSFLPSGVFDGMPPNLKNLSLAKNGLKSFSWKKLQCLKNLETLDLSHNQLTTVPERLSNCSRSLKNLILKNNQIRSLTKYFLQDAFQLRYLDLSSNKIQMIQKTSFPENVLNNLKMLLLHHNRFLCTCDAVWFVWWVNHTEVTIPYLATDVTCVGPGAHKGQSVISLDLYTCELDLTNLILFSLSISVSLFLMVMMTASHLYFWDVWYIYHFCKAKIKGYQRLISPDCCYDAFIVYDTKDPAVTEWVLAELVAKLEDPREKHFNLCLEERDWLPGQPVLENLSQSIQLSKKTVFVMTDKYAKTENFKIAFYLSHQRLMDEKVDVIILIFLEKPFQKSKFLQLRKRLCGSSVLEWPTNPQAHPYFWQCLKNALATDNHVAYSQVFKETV
The assay can be described thus: HEK293-Blue-hTLR-7 Cells Ass: A stable HEK293-Blue-hTLR-7 cell line was purchased from InvivoGen (Cat.#: hkb-htlr7, San Diego, Calif., USA). These cells were designed for studying the stimulation of human TLR7 by monitoring the activation of NF-κB. A SEAP (secreted embryonic alkaline phosphatase) reporter gene was placed under the control of the IFN-β[…] minimal promoter fused to five NF-κB and AP-1-binding sites. The SEAP was induced by activating NF-κB and AP-1 via stimulating HEK-Blue hTLR7 cells with TLR7 ligands. Therefore the reporter expression was regulated by the NF-κB promoter upon stimulation of human TLR7 for 20 hours. The cell culture supernatant SEAP reporter activity was determined using QUANTI-Blue kit (Cat.#: rep-qb1, Invivogen, San Diego, Calif., USA) at a wavelength of 640 nm, a detection medium that turns purple or blue in the presence of alkaline phosphatase.HEK293-Blue-hTLR7 cells were incubated at a density of 250,000 ~ 450,000 cells/mL in a volume of 180 μL in a 96-well plate in Dulbecco's Modified Eagle's medium (DMEM) containing 4.5 g/L glucose, 50 U/mL penicillin, 50 […], 100 […], 2 mM L-glutamine, 10% (v/v) heat-inactivated fetal bovine serum for 24 h. […].

With `CCC(O)[C@@H]1C[C@@H](OC(C)=O)[C@H](n2c(=O)sc3c(=O)[nH]c(N)nc32)O1` (single isomer, unassigned), the concentration for a half-maximal effect (EC50) turned out to be 48 µM.
